Earlier results as cited in patent publication US20050288375A1, “Method and composition for treating neurodegenerative disorders” (Myriad Genetics, Incorporated, priority 2003, published 2005).

How the values were obtained:
[1] = rofecoxib at 25 mg daily; naproxen in the same trial
[2] = test system: brain cells after cerebral ischemia; conditions: rats
[3] = not given; remark: listed apart in the source

In the case of `COc1ccc2cc([C@H](C)C(=O)O)ccc2c1` [Naproxen], the “efficacy for treating AD” value [1] is given as “failed to show efficacy”.
In the case of `c1ccc(C2(N3CCCCC3)CCCCC2)cc1` [PCP, Phencyclidine], the “destruction of brain cells after cerebral ischemia” value [2] is given as “prevent the destruction of brain cells”.
For `COc1ccc2c(c1)[C@@]13CCCC[C@H]1[C@@H](C2)N(C)CC3` [dextromethorphan, (+)-3-methoxy-N-methylmorphinan], the “side effects at high doses” value is listed as “drowsiness, nausea, and decreased coordination”.
For `CN1CC[C@]23CCCC[C@H]2[C@H]1Cc1ccc(O)cc13` [dextrorphan, (+)-3-hydroxy-N-methylmorphinan], the “side effects at high doses” value is listed as “drowsiness, nausea, and decreased coordination”.
In the case of `CC12CC3CC(C)(C1)CC(N)(C3)C2` [memantine, 1-amino-3,5-dimethyl adamantane], the “efficacy in treating mild-to-moderate AD” value [3] is listed as “showed efficacy”.
For `CS(=O)(=O)c1ccc(C2=C(c3ccccc3)C(=O)OC2)cc1` [rofecoxib], the “efficacy for treating AD” value [1] is given as “failed to show efficacy”.
